Where two headings read alike, the source gives them in different places.
Molecular target: T1, human α-synuclein (Homo sapiens, UniProt P37840)
T1 construct: the full-length gene for untagged human α-synuclein was inserted; made in house; host or cells: E. coli BL21(DE3), plasmid derived from pT7 or pET11a
Experiment: Cell-free Thioflavin T assay of α-synuclein aggregation (αSyn ThT Assay)
Assay type: biochemical
Conditions: αSyn 50 μM, compounds at 100 μM
Method in brief: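 Untagged full-length human α-synuclein from E. coli, 50 μM, with 20-40 μM ThT, 1% DMSO, compound at 20-100 μM and a glass bead, 37° C. with shaking. Fluorescence (ex 438/em 495 nm) read hourly to 73 h. Compound-only background subtracted and values normalised to vehicle at 36-72 h or final timepoint, giving % inhibition.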

[1] = mean % inhibition of αSyn aggregation relative to DMSO control, read-out: αSyn ThT Assay % Inhibition
[2] = class symbol, read-out: αSyn ThT Assay % Inhibition (activity range)

| SMILES | inhibition at 100 µM [1] | inhibition at 100 µM [2] |
| --- | --- | --- |
| O=C(O)C1CN(CCCCO)S(=O)(=O)c2c(-c3cccc(C(F)(F)F)c3)c(Cc3cccc4ccccc34)c(NC3CCCC3)c(=O)n21 (stereo not shown) [Compound 121, 7-(cyclopentylamino)-2-(4-hydroxybutyl)-8-(naphthalen-1-ylmethyl)-6-oxo-9-(3-(trifluoromethyl)phenyl)-3,4-dihydro-2H,6H-pyrido[1,2-e][1,2,5]thiadiazine-4-carboxylic acid 1,1-dioxide] | 27% | 11 to 30% |
| O=C(O)C1CN(CCCCCO)S(=O)(=O)c2c(-c3cccc(C(F)(F)F)c3)c(Cc3cccc4ccccc34)c(NC3CCCC3)c(=O)n21 (stereo not shown) [Compound 122, 7-(cyclopentylamino)-2-(5-hydroxypentyl)-8-(naphthalen-1-ylmethyl)-6-oxo-9-(3-(trifluoromethyl)phenyl)-3,4-dihydro-2H,6H-pyrido[1,2-e][1,2,5]thiadiazine-4-carboxylic acid 1,1-dioxide] | 38% | 31 to 60% |
| CC(C)N1CC(C(=O)O)n2c(c(-c3cccc(C(F)(F)F)c3)c(Cc3cccc4ccccc34)c(NC3CCCC3)c2=O)S1(=O)=O (stereo not shown) [Compound 123, 7-(cyclopentylamino)-2-isopropyl-8-(naphthalen-1-ylmethyl)-6-oxo-9-(3-(trifluoromethyl)phenyl)-3,4-dihydro-2H,6H-pyrido[1,2-e][1,2,5]thiadiazine-4-carboxylic acid 1,1-dioxide] | 76% | > 60% |
| CCCN1CC(C(=O)O)n2c(c(-c3cccc(C(F)(F)F)c3)c(Cc3cccc4ccccc34)c(NC3CCCC3)c2=O)S1(=O)=O (stereo not shown) [Compound 126, 7-(cyclopentylamino)-8-(naphthalen-1-ylmethyl)-6-oxo-2-propyl-9-(3-(trifluoromethyl)phenyl)-3,4-dihydro-2H,6H-pyrido[1,2-e][1,2,5]thiadiazine-4-carboxylic acid 1,1-dioxide] | 32% | 31 to 60% |
| CCCN1CC(C(=O)O)n2c(c(-c3cccc(C(F)(F)F)c3)c(Cc3cccc4ccccc34)c(NC3CCOCC3)c2=O)S1(=O)=O (stereo not shown) [Compound 127, 8-(naphthalen-1-ylmethyl)-6-oxo-2-propyl-7-((tetrahydro-2H-pyran-4-yl)amino)-9-(3-(trifluoromethyl)phenyl)-3,4-dihydro-2H,6H-pyrido[1,2-e][1,2,5] thiadiazine-4-carboxylic acid 1,1-dioxide] | 67% | > 60% |

Reference: patent US20230131899A1, “INHIBITORS OF MICROBIALLY INDUCED AMYLOID” (Axial Therapeutics, Inc., priority 2020, published 2023)
